The values that follow come from patent US20170000784A1, “Autophagy Inhibitors” (priority 2013, published 2017).

Converted amounts (≈) assume the structure as drawn.

Assay [1] deals with Tumor cell lines (H292, HCT116, A375, HCC1569, A498, N87, UACC1093, and UACC647). The assay can be described thus: Single agent tumor cell viability (ATP luminescence, 72 hours). The format is cell-based. Conditions: cell lines tested; 72 hours exposure; FIGS. 1A, 1B. How it is done: (§1) Tumor cell lines (H292, HCT116, A375, HCC1569, A498, N87, UACC1093, and UACC647) were cultured in RPMI 1640 supplemented with 5% fetal bovine serum and housed in a 5% CO2 Incubator at 37° C.
(§2) For single agent IC50 determination, cells were plated on a 96 well microplate and allowed 24 hours to adhere. Drugs were administered to the drug plate by the following: compound stock solutions (10 mM) were added to a drug plate where a 1:10 dilution was performed. Following the dilutions, 2 μl of test compound was transferred to the corresponding wells in the cell-containing 96-well plate with 198 μl of growth media. The compounds were tested over a range of 0.1 pM-100 μM for 72 hours. Following 72 hours of continuous exposure cell viability was determined by measuring the ATP activity using a commercially available cell viability assay kit. Luminescence intensity was used to relative drug activity compared to control wells and used to graphically determine the IC50.

The test system of assay [2] is PLX-4032 resistant melanoma cell lines UACC1093 and UACC647. The assay can be described thus: Combination interaction tumor cell viability (ATP luminescence, 72 hours). The format is cell-based. How it is done: as §1
as §2, with “combination interaction experiments,” for “single agent IC50 determination,”, “(20 mM) or combination agent stock solutions (20” for “(10”, “each VT-062 and standard agent” for “test compound”, “196” for “198”, “compound and combination agent was concurrently” for “compounds were”, “IC50 of combination.” for “IC50.”

For assay [3], the system named is A375 Human melanoma tumor cells. Kind of assay: Human tumor xenograft study. The following applies: A375 xenograft in female mice; orally, daily for 21 days; after 25 days. The format is in vivo. How it is done:
Female mice were inoculated subcutaneously in the right flank with 0.1 ml of a 50% RPMI/50% Matrigel™ (BD Biosciences, Bedford, Mass.) mixture containing a suspension of A375 Human melanoma tumor cells (approximately 5×10^6 cells/mouse).
When tumor reached approximately 130 mg, mice were randomized into treatment groups. Body weights were recorded when the mice were randomized and were taken twice per week (on Study Days 3 and 7 for each cycle) thereafter in conjunction with tumor measurements. Treatment began on the day of randomization. Example 10 was delivered orally in a vehicle consisting of 5% DMA, 10% propylene glycol, 20% PEG 400, and 65% sterile water. Example 10 was administered daily for 21 days.

Another assay relates to A375 melanoma cell line. The assay can be described thus: Cell viability (IC50) screen, CellTiter Glo, A375. The format is cell-based. The following applies: Homo sapiens, A-375; A375 cell viability, CellTiter Glo, 48 hours; read-out: IC50. How it is done: (§3) U2OS cells were seeded at 500 cells per well in 5A McCoy's with 10% FBS in 96-well clear bottom, black-walled tissue culture plates. All melanoma cell lines (A375, UACC-91, UACC-257, UACC-502, UACC-903, UACC-1308, UACC-1940, UACC-2534, and UACC-3291) were seeded at 5,000 cells per well in RPMI 1640 with 10% FBS in 96-well clear bottom, black-walled tissue culture plates. After 24 hour incubation, cells were treated with VATG compounds in triplicate with a 10-point half log dose response from […] for 24 and 48 hours. Medium was removed and 2× CellTiter Glo (Promega, G7571) reagent mixed 1:1 with Opti-MEM (Invitrogen, 31985062) was added at 100 μL per well and incubated at room temperature for 15 minutes while rocking. 75 μL per well was moved to a white-walled 96-well plate and luminescence quantified using the 96 LUM program on an EnVision plate reader (PerkinElmer) and exported for analysis. All triplicate data points were averaged and luminescent readings for each treatment were normalized to vehicle control for change in viability. Dose response curves were input into SigmaPlot for IC50 calculations (Systat Software Inc).

Assay [4] has as its system UACC-91 melanoma cell line. The assay can be described thus: Cell viability (IC50) screen, CellTiter Glo, UACC-91. The following applies: Homo sapiens; UACC-91 cell viability, CellTiter Glo; read-out: IC50. In kind it is cell-based. How it is done:
as §3

Assay [5] deals with UACC-257 melanoma cell line. Kind of assay: Cell viability (IC50) screen, CellTiter Glo, UACC-257. The format is cell-based. Conditions: Homo sapiens; UACC-257 cell viability, CellTiter Glo; read-out: IC50. On the procedure: as §3
The test system of assay [6] is UACC-502 melanoma cell line. The assay can be described thus: Cell viability (IC50) screen, CellTiter Glo, UACC-502. The format is cell-based. The following applies: Homo sapiens; UACC-502 cell viability, CellTiter Glo; read-out: IC50. How it is done: as §3
The test system of assay [7] is UACC-903 melanoma cell line. The assay can be described thus: Cell viability (IC50) screen, CellTiter Glo, UACC-903. In kind it is cell-based. The following applies: Homo sapiens; UACC-903 cell viability, CellTiter Glo; read-out: IC50. On the procedure:
as §3

Assay [8] has as its system UACC-1308 melanoma cell line. The assay can be described thus: Cell viability (IC50) screen, CellTiter Glo, UACC-1308. In kind it is cell-based. Conditions: Homo sapiens; UACC-1308 cell viability, CellTiter Glo; read-out: IC50. How it is done: as §3
The subject of assay [9] is UACC-1940 melanoma cell line. The assay can be described thus: Cell viability (IC50) screen, CellTiter Glo, UACC-1940. The format is cell-based. The following applies: Homo sapiens; UACC-1940 cell viability, CellTiter Glo; read-out: IC50. On the procedure: as §3
In assay [10] the test system is UACC-2534 melanoma cell line. Kind of assay: Cell viability (IC50) screen, CellTiter Glo, UACC-2534. In kind it is cell-based. The following applies: Homo sapiens; UACC-2534 cell viability, CellTiter Glo; read-out: IC50. On the procedure: as §3
For assay [11], the system named is UACC-3291 melanoma cell line. The assay can be described thus: Cell viability (IC50) screen, CellTiter Glo, UACC-3291. In kind it is cell-based. The following applies: Homo sapiens; UACC-3291 cell viability, CellTiter Glo; read-out: IC50. How it is done: as §3
Assay [12] concerns phospho-ERK1/2 and LC3-II in A375 cells. Kind of assay: Western blot of A375 cells treated with PLX-4032 with and without autophagy inhibitors. In kind it is cell-based, human. On the procedure: For Western blotting, U2OS cells were seeded in 10 cm plates in 5A McCoy's with 10% FBS at 1×10^6 cells per plate. All melanoma lines were seeded in 10 cm plates in RPMI 1640 with 10% FBS at 1×10^6 cells per plate. After 24 hours, cells were treated with CQ, QN, Example 27, or Example 7 in a dose response of 0.3 μM, 1 μM, 3 μM, 10 μM, and 30 μM for three hours. A375 were treated with PLX-4032 (Selleck Chemicals, S1267) at 10 nM, 100 nM, and 1 μM for three hours with and without CQ, QN, Example 7, and Example 27 at 3 μM and 30 μM. After treatment, cells were lysed [10 mM KPO4, 1 mM EDTA, 10 mM MgCl2, 5 mM EGTA, 50 mM bis-glycerophosphate, 0.5% NP40, 0.1% Brij35, 0.1% sodium deoxycholate, 1 mM NaVO4, 5 mM NaF, 2 mM DTT, and complete protease inhibitors (Sigma, P8340-5 mL)] and 50 μg of protein was resolved by SDS-PAGE. Proteins were transferred to PVDF membranes and probed with primary antibodies [LC3 (Sigma, L7543-200UL), anti-α-tubulin (Sigma, T6199), cathepsin B (Santa Cruz, sc-13985)] for 16 hours at 4° C. followed by a secondary antibody [HRP-linked rabbit or mouse IgG (GE Healthcare, NA934 or NA931) or Odyssey IRDye 680CW Goat anti-rabbit IgG (LI-COR, 926-32221) or IRDye 800CW Goat anti-mouse IgG (LI-COR, 926-32210)] for 1 hour at room temperature. Proteins were detected with enhanced chemiluminescence or using the Odyssey machine and quantified (FIGS. 12, 15, 16, 7 and 11).
Since the melanoma cell lines are capable of undergoing autophagy and sensitive to autophagy inhibition, the inventors questioned whether autophagy inhibitors could improve the efficacy of, or sensitize melanoma cells against cytotoxic and chemotherapeutic drugs for advanced metastatic melanoma. In one example, PLX-4032 drug “vemurafenib” (marketed as ZELBORAF®) is a B-Raf enzyme inhibitor developed by Plexxikon and Genentech for the treatment of late-stage melanoma. The name “vemurafenib” comes from V600E mutated BRAF inhibition. PLX-4032, selectively targets the V600E mutant BRAF and it is unknown how this drug may affect autophagic flux. To determine the effects of the drug on autophagic flux, the present inventors performed experiments to determine whether PLX-4032 induces autophagy, as has been observed with other targeted agents. In some embodiments, the accumulation of LC3-II in response to lysosome inhibition was measured by quantitative Western blotting, as described above. A375 cells were treated with PLX-4032 (10 nM, 100 nM, and 1 μM) for three hours in the presence or absence of CQ.

A further assay relates to A375 cells. The format is cell-based, human. The following applies: A375 soft agar. The text has this:
After three weeks of treatment, cells were fixed and stained in 1% paraformaldehyde in 1×PBS containing 0.005% crystal violet overnight. Cells were destained with multiple washes of 1×PBS to remove background staining. Plates were scanned and images quantified using Nikon NIS Elements software. To quantify, each image was sharpened and an ROI of equal size drawn around each well. Intensity thresholds were set to include all pixels equal to or greater than the intensity of the mean background fluorescence. Objects within the threshold of each ROI were quantified using an automated object count function and exported for analysis. Object number was quantified to denote total colony formation. […] Additivity was established when the expected viability determined by the Bliss independence model was equal to the actual viability. This model was chosen since the effects of both compounds are mutually non-exclusive and follow first order Michaelis-Menten kinetics.
To determine if the effects of each combination were more than, less than, or equal to additive, predictions for additivity were made using the Bliss Independence (Table 7), as disclosed in Yan H, Zhang B, Li S, Zhao Q. A formal model for analyzing drug combination effects and its application in TNF-alpha-induced NFkappaB pathway. BMC Syst. […] Drug combination studies and their synergy quantification using the Chou-Talalay method.

Assay [13] has as its system metastatic melanoma with BRAF V600E mutation. The following applies: metastatic melanoma patients with the mutation; in one study; cited from earlier work.
Another assay deals with L6 cells. Kind of assay: In vitro cytotoxicity (LD50), Alamar Blue. In kind it is cell-based. Conditions: Rattus norvegicus, L6, read-out: L6 IC50. How it is done: L6 cells were seeded at 4×10^4 cells per well in a 96-well microtiter plate with each well containing 100 μL of RPMI 1640 medium, supplemented with 1% L-glutamine (200 mM), and 10% fetal bovine serum. Serial drug dilutions of Example 7 and Example 27 with seven 3-fold dilution steps, covering a range from 90 to 0.12 μg/mL, were prepared. After 72 h of incubation, the plates were inspected under an inverted microscope to ensure growth of the controls and sterile conditions. Alamar Blue (10 μL, 12.5 mg of resazurin dissolved in 100 mL of double-distilled water) was then added to each well, and the plates were incubated for another 2 hours. Plates were read with a microplate fluorometer using an excitation wavelength of 536 nm and an emission wavelength of 588 nm. Data were analyzed using microplate reader software. Podophyllotoxin was used as a standard (L6 IC50=0.04 μg/mL).
Next, the inventors wanted to determine if there is a therapeutic window for Example 7 and Example 27 in the treatment of P. falciparum. A therapeutic window for P. falciparum treatment is defined as a 10-fold differential between the in vitro cytotoxicity (LD50) within a mammalian cell line and the antimalarial IC50 (LD50/IC50) as defined by the MMV. Using the rat skeletal muscle L6 mammalian cell line, dose-response curves for Example 7 and Example 27 were performed and the LD50 determined.

On to `COc1ccc2nc3cc(Cl)ccc3c(NCCCCN(C)CC3CC3)c2c1` [Example 10, N^1-(6-Chloro-2-methoxyacridin-9-yl)-N^4-(cyclopropylmethyl)-N^4-methylbutane-1,4-diamine], for which, in assay [1], the “tumor cell growth inhibition” value is “more than 75%”. In addition, the “increase in tumor growth inhibition in combination than Example 10 alone” value in assay [2] (in combination with PLX-4032, FIGS. 4A, 4C) is 2.6-3.25%; in [2] (in combination with Temozolomide, FIGS. 4B, 4D), 7-30%. For the same compound, the tumor growth inhibition result in assay [3] was “greater than 50%”.

Take `CCCS(=O)(=O)Nc1ccc(F)c(C(=O)c2c[nH]c3ncc(-c4ccc(Cl)cc4)cc23)c1F` [PLX-4032, N-[3-[5-(4-chlorophenyl)-1H-pyrrolo[2,3-b]pyridine-3-carbonyl]-2,4-difluorophenyl]propane-1-sulfonamide, reference compound]: the IC50 is 1 µM in the assay with A375 melanoma cell line; 0.6 µM in assay [4]; 4 µM in [5]; 4.2 µM in assay [6]; 69 µM in assay [7]; 0.6 µM in assay [8]. Besides, the figures for the IC50 in assay [9], in [10] and in assay [11] were 3.3 µM, 19.3 µM and 1.5 µM, respectively. The “phosphorylation of ERK1/2 (oncogenic BRAF signaling)” value in assay [12] (10 nM, 100 nM, 1 μM for three hours) is reported as “reduced phosphorylation”. Moreover, the “autophagy / basal autophagic flux (LC3-II)” value in assay [12] (three hours, in the presence or absence of lysosome inhibitors) is given as “not significantly altered”. Moreover, in the assay on A375 cells (single compound at IC10), the “Relative Growth Inhibition Compound B” value is given as 0.19. For the same compound, the IC10 concentration in the assay with A375 cells (treated every other day for three weeks, single agent) was determined as 0.0013 µM. Also, the response rate in assay [13] was 70%.

For the compound `COc1cc([C@@H]2c3cc4c(cc3[C@H](O)[C@H]3COC(=O)[C@H]23)OCO4)cc(OC)c1OC` [Podophyllotoxin], the 50% inhibitory concentration (IC50) in the assay on L6 cells came to 0.04 µg/mL (≈ 0.0965 µM).
